Tests used:
[1] = system: Campylobacter jejuni strain cj49349; experiment: Growth on BASB agar supplemented with ciprofloxacin; format: cell-based; settings: ciprofloxacin at 16 μg per ml; wild-type strain cj49349
[2] = system: ciprofloxacin-resistant Campylobacter jejuni mutants (C to T transition in codon 86 of gyrA); experiment: Growth of selected mutants on BASB medium containing ciprofloxacin; format: cell-based; settings: ciprofloxacin at 16 μg/ml; 12 Campylobacter mutants
[3] = system: Campylobacter jejuni with high-level ciprofloxacin resistance; settings: gyrA codon 86 C to T transition; cited from earlier work

O=C(O)c1cn(C2CC2)c2cc(N3CCNCC3)c(F)cc2c1=O [ciprofloxacin]
growth on BASB agar supplemented with ciprofloxacin [1]: unable to grow | growth on BASB medium containing ciprofloxacin [2]: able to grow | MIC [3]: ≥ 16 µg/mL

Reference: patent US6355435B1, “Methods for detecting and enumerating Campylobacter jejuni in environmental samples and for identifying antibiotic-resistant strains” (priority 1999, dated 2002)
